Test results from ChEMBL document CHEMBL1157039, “Synthesis and characterization of novel fatty acid analogs of cholesterol: in vitro antimicrobial activity” (2010).
In brackets after ≈: the same amount, converted by molar mass.

Key:
Pichia kudriavzevii [1] = experiment: Antifungal activity against Candida krusei ATCC 6528 after 48 to 72 hrs by microdilution method; type: functional
Candida albicans [2] = experiment: Antifungal activity against Candida albicans ATCC 24433 after 48 to 72 hrs by microdilution method; type: functional
Cryptococcus neoformans [3] = experiment: Antifungal activity Cryptococcus neoformans at 30 ug/mL after 48 to 72 hrs by disk diffusion method; type: functional; details: read-out: DIZ
Cryptococcus neoformans [4] = experiment: Antifungal activity Cryptococcus neoformans after 48 to 72 hrs by microdilution method; type: functional
Candida albicans [5] = experiment: Antifungal activity against Candida albicans ATCC 24433 at 30 ug/mL after 48 to 72 hrs by disk diffusion method; type: functional; details: read-out: DIZ
Candida parapsilosis [6] = experiment: Antifungal activity against Candida parapsilosis ATCC 22019 after 48 to 72 hrs by microdilution method; type: functional; details: Lodderomyces parapsilosis
Pichia kudriavzevii [7] = experiment: Antifungal activity against Candida krusei ATCC 6528 at 30 ug/mL after 48 to 72 hrs by disk diffusion method; type: functional; details: read-out: DIZ
Candida parapsilosis [8] = experiment: Antifungal activity against Candida parapsilosis ATCC 22019 at 30 ug/mL after 48 to 72 hrs by disk diffusion method; type: functional; details: Lodderomyces parapsilosis, read-out: DIZ
Candida albicans [9] = experiment: Antifungal activity against Candida albicans ATCC 24433 after 48 to 72 hrs by disk diffusion method; type: functional
Candida parapsilosis [10] = experiment: Antifungal activity against Candida parapsilosis ATCC 22019 after 48 to 72 hrs by disk diffusion method; type: functional
Pseudomonas aeruginosa [11] = experiment: Antibacterial activity against Pseudomonas aeruginosa ATCC 27853 after 24 hrs by disk diffusion method; type: functional
Escherichia coli [12] = experiment: Antibacterial activity against Escherichia coli ATCC 25922 after 24 hrs by microdilution method; type: functional; details: ATCC 25922, 24 h
Escherichia coli [13] = experiment: Antibacterial activity against Escherichia coli ATCC 25922 after 24 hrs by disk diffusion method; type: functional
Pichia kudriavzevii [14] = experiment: Antifungal activity against Candida krusei ATCC 6528 after 48 to 72 hrs by disk diffusion method; type: functional
Staphylococcus aureus [15] = experiment: Antibacterial activity against Staphylococcus aureus ATCC 25923 after 24 hrs by disk diffusion method; type: functional
Streptococcus mutans [16] = experiment: Antibacterial activity against Streptococcus mutans UA159 MTCC 497 after 24 hrs by disk diffusion method; type: functional
Cryptococcus neoformans [17] = experiment: Antifungal activity Cryptococcus neoformans after 48 to 72 hrs by disk diffusion method; type: functional
Streptococcus pyogenes [18] = experiment: Antibacterial activity against recultured Streptococcus pyogenes after 24 hrs by microdilution method; type: functional
Pseudomonas aeruginosa [19] = experiment: Antibacterial activity against Pseudomonas aeruginosa ATCC 27853 after 24 hrs by microdilution method; type: functional; details: ATCC 27853, 24 h
Streptococcus mutans [20] = experiment: Antibacterial activity against Streptococcus mutans UA159 MTCC 497 after 24 hrs by microdilution method; type: functional; details: UA159 MTCC 497, 24 h
Salmonella enterica [21] = experiment: Antibacterial activity against recultured Salmonella Typhimurium after 24 hrs by microdilution method; type: functional, Salmonella enterica subsp. enterica serovar Typhimurium
Staphylococcus aureus [22] = experiment: Antibacterial activity against Staphylococcus aureus ATCC 25923 after 24 hrs by microdilution method; type: functional; details: ATCC 25923, 24 h
Streptococcus pyogenes [23] = experiment: Antibacterial activity against recultured Streptococcus pyogenes after 24 hrs by disk diffusion method; type: functional
Salmonella enterica [24] = experiment: Antibacterial activity against recultured Salmonella Typhimurium after 24 hrs by disk diffusion method; type: functional, Salmonella enterica subsp. enterica serovar Typhimurium
Streptococcus mutans [25] = experiment: Antibacterial activity against Streptococcus mutans UA159 MTCC 497 at 30 ug/mL after 24 hrs by disk diffusion method; type: functional; details: UA159 MTCC 497, 24 h, read-out: DIZ
Streptococcus pyogenes [26] = experiment: Antibacterial activity against recultured Streptococcus pyogenes at 30 ug/mL after 24 hrs by disk diffusion method; type: functional; details: read-out: DIZ
Staphylococcus aureus [27] = experiment: Antibacterial activity against Staphylococcus aureus ATCC 25923 at 30 ug/mL after 24 hrs by disk diffusion method; type: functional; details: ATCC 25923, 24 h, read-out: DIZ
Pseudomonas aeruginosa [28] = experiment: Antibacterial activity against Pseudomonas aeruginosa ATCC 27853 at 30 ug/mL after 24 hrs by disk diffusion method; type: functional; details: ATCC 27853, 24 h, read-out: DIZ
Salmonella enterica [29] = experiment: Antibacterial activity against recultured Salmonella Typhimurium at 30 ug/mL after 24 hrs by disk diffusion method; type: functional, Salmonella enterica subsp. enterica serovar Typhimurium; details: read-out: DIZ
Escherichia coli [30] = experiment: Antibacterial activity against Escherichia coli ATCC 25922 at 30 ug/mL after 24 hrs by disk diffusion method; type: functional; details: ATCC 25922, 24 h, read-out: DIZ

| SMILES | MIC (Pichia kudriavzevii [1]) [µg/mL] | MIC (Candida albicans [2]) [µg/mL] | MIC (Cryptococcus neoformans [4]) [µg/mL] | MIC (Candida parapsilosis [6]) [µg/mL] | diameter of the inhibition zone (DIZ) (Candida albicans [9]) [mm] | diameter of the inhibition zone (DIZ) (Candida parapsilosis [10]) [mm] | diameter of the inhibition zone (DIZ) (Pseudomonas aeruginosa [11]) [mm] | MIC (Escherichia coli [12]) [µg/mL] | diameter of the inhibition zone (DIZ) (Escherichia coli [13]) [mm] | diameter of the inhibition zone (DIZ) (Pichia kudriavzevii [14]) [mm] | diameter of the inhibition zone (DIZ) (Staphylococcus aureus [15]) [mm] | diameter of the inhibition zone (DIZ) (Streptococcus mutans [16]) [mm] | diameter of the inhibition zone (DIZ) (Cryptococcus neoformans [17]) [mm] | MIC (Streptococcus pyogenes [18]) [µg/mL] | MIC (Pseudomonas aeruginosa [19]) [µg/mL] | MIC (Streptococcus mutans [20]) [µg/mL] | MIC (Salmonella enterica [21]) [µg/mL] | MIC (Staphylococcus aureus [22]) [µg/mL] | diameter of the inhibition zone (DIZ) (Streptococcus pyogenes [23]) [mm] | diameter of the inhibition zone (DIZ) (Salmonella enterica [24]) [mm] | further results |
| --- | --- | --- | --- | --- | --- | --- | --- | --- | --- | --- | --- | --- | --- | --- | --- | --- | --- | --- | --- | --- | --- |
| OC(Cn1cncn1)(Cn1cncn1)c1ccc(F)cc1F [FLUCONAZOLE] | 64 (≈ 209 µM) | 1 (≈ 3.27 µM) | 8 (≈ 26.1 µM) | 8 (≈ 26.1 µM) | – | – | – | – | – | – | – | – | – | – | – | – | – | – | – | – | zone of inhibition at 30 µg/mL (Cryptococcus neoformans [3]): 19 mm; zone of inhibition at 30 µg/mL (Candida albicans [5]): 20 mm; zone of inhibition at 30 µg/mL (Pichia kudriavzevii [7]): 20 mm; zone of inhibition at 30 µg/mL (Candida parapsilosis [8]): 18 mm |
| CC(C)CCC[C@@H](C)[C@H]1CC[C@H]2[C@@H]3CC=C4C[C@@H](OC(=O)CCCCCCCCC5CO5)CC[C@]4(C)[C@H]3CC[C@]12C (stereo not given in full) | 128 (≈ 225 µM) | 1 (≈ 1.76 µM) | 32 (≈ 56.2 µM) | 8 (≈ 14.1 µM) | 19.6 | 16.9 | 18.5 | 32 (≈ 56.2 µM) | 19.9 | 17.8 | 21.9 | 21.9 | 15.8 | 32 (≈ 56.2 µM) | 64 (≈ 112 µM) | 32 (≈ 56.2 µM) | 64 (≈ 112 µM) | 32 (≈ 56.2 µM) | 20.5 | 17.2 | – |
| C=CCCCCCCCCC(=O)O[C@H]1CC[C@@]2(C)C(=CC[C@H]3[C@@H]4CC[C@H]([C@H](C)CCCC(C)C)[C@@]4(C)CC[C@@H]32)C1 | 256 (≈ 463 µM) | 2 (≈ 3.62 µM) | 128 (≈ 231 µM) | 32 (≈ 57.9 µM) | 18.3 | 15.1 | 16.2 | 128 (≈ 231 µM) | 16.5 | 16.1 | 19.8 | 20.5 | 12.1 | 32 (≈ 57.9 µM) | 32 (≈ 57.9 µM) | 32 (≈ 57.9 µM) | 128 (≈ 231 µM) | 64 (≈ 116 µM) | 19.2 | 16.4 | – |
| CCCCC/C=C\CCC(O)CCCCCCCC(=O)O[C@H]1CC[C@@]2(C)C(=CC[C@H]3[C@@H]4CC[C@H]([C@H](C)CCCC(C)C)[C@@]4(C)CC[C@@H]32)C1 (stereo not given in full) | 64 (≈ 95.9 µM) | 1 (≈ 1.5 µM) | 8 (≈ 12 µM) | 8 (≈ 12 µM) | 22.5 | 19.8 | 8.8 | 512 (≈ 767 µM) | 9.6 | 20.7 | 17.1 | 17.3 | 19.1 | 128 (≈ 192 µM) | 128 (≈ 192 µM) | 64 (≈ 95.9 µM) | 128 (≈ 192 µM) | 64 (≈ 95.9 µM) | 16.8 | 14.8 | – |
| CC(C)CCC[C@@H](C)[C@H]1CC[C@H]2[C@@H]3C[C@@H](Br)[C@@]4(Br)C[C@@H](OC(=O)CCCCCCCCC(Br)CBr)CC[C@]4(C)[C@H]3CC[C@]12C (stereo not given in full) | 512 (≈ 587 µM) | 4 (≈ 4.58 µM) | 64 (≈ 73.3 µM) | 64 (≈ 73.3 µM) | 17.8 | 14.4 | 17.1 | 32 (≈ 36.7 µM) | 20.5 | 15.5 | 22.5 | 23.1 | 13.8 | 32 (≈ 36.7 µM) | 64 (≈ 73.3 µM) | 32 (≈ 36.7 µM) | 64 (≈ 73.3 µM) | 32 (≈ 36.7 µM) | 23.3 | 21.3 | – |
| O=C(N[C@H](CO)[C@H](O)c1ccc([N+](=O)[O-])cc1)C(Cl)Cl [CHLORAMPHENICOL] | – | – | – | – | – | – | – | 32 (≈ 99 µM) | – | – | – | – | – | 32 (≈ 99 µM) | 32 (≈ 99 µM) | 32 (≈ 99 µM) | 32 (≈ 99 µM) | 32 (≈ 99 µM) | – | – | zone of inhibition at 30 µg/mL (Streptococcus mutans [25]): 26.8 mm; zone of inhibition at 30 µg/mL (Streptococcus pyogenes [26]): 22.4 mm; zone of inhibition at 30 µg/mL (Staphylococcus aureus [27]): 21 mm; zone of inhibition at 30 µg/mL (Pseudomonas aeruginosa [28]): 17.1 mm; zone of inhibition at 30 µg/mL (Salmonella enterica [29]): 25.2 mm; zone of inhibition at 30 µg/mL (Escherichia coli [30]): 20 mm |
| CCCCCCC(O)C/C=C\CCCCCCCC(=O)O[C@H]1CC[C@@]2(C)C(=CC[C@H]3[C@@H]4CC[C@H]([C@H](C)CCCC(C)C)[C@@]4(C)CC[C@@H]32)C1 (stereo not given in full) | 64 (≈ 95.9 µM) | 1 (≈ 1.5 µM) | 8 (≈ 12 µM) | 8 (≈ 12 µM) | 20.3 | 17.8 | 16.5 | 32 (≈ 48 µM) | 20.4 | 18.7 | 22.1 | 22.8 | 16.9 | 32 (≈ 48 µM) | 128 (≈ 192 µM) | 32 (≈ 48 µM) | 32 (≈ 48 µM) | 32 (≈ 48 µM) | 22.6 | 21.1 | – |
| C=CCCCCCCCCC(=O)O[C@H]1CC[C@]2(C)[C@H]3CC[C@]4(C)[C@@H]([C@H](C)CCCC(C)C)CC[C@H]4[C@@H]3C[C@@H](Br)[C@@]2(Br)C1 | 256 (≈ 359 µM) | 16 (≈ 22.4 µM) | 128 (≈ 180 µM) | 256 (≈ 359 µM) | 15.5 | 12.8 | 17.1 | 128 (≈ 180 µM) | 19.8 | 13.4 | 20.1 | 21.5 | 12.7 | 64 (≈ 89.8 µM) | 512 (≈ 718 µM) | 32 (≈ 44.9 µM) | 128 (≈ 180 µM) | 64 (≈ 89.8 µM) | 20.2 | 16.2 | – |
| CC(C)CCC[C@@H](C)[C@H]1CC[C@H]2[C@@H]3CC=C4C[C@@H](OC(=O)CCCCCCCCC(Br)CBr)CC[C@]4(C)[C@H]3CC[C@]12C (stereo not given in full) | 128 (≈ 180 µM) | 1 (≈ 1.4 µM) | 32 (≈ 44.9 µM) | 8 (≈ 11.2 µM) | 19.5 | 16.8 | 15.1 | 128 (≈ 180 µM) | 16.4 | 17.5 | 19.5 | 20.3 | 15.9 | 32 (≈ 44.9 µM) | 128 (≈ 180 µM) | 32 (≈ 44.9 µM) | 128 (≈ 180 µM) | 64 (≈ 89.8 µM) | 18.8 | 16.1 | – |
| CCCCCCCC/C=C\CCCCCCCC(=O)O[C@H]1CC[C@@]2(C)C(=CC[C@H]3[C@@H]4CC[C@H]([C@H](C)CCCC(C)C)[C@@]4(C)CC[C@@H]32)C1 [CHOLESTERYL OLEATE] | 256 (≈ 393 µM) | 2 (≈ 3.07 µM) | 32 (≈ 49.1 µM) | 16 (≈ 24.6 µM) | 18.7 | 15.7 | 14.3 | 128 (≈ 197 µM) | 16.1 | 16.8 | 17.8 | 18.9 | 15.1 | 64 (≈ 98.3 µM) | 128 (≈ 197 µM) | 64 (≈ 98.3 µM) | 128 (≈ 197 µM) | 64 (≈ 98.3 µM) | 17.2 | 15.1 | – |
